# Test results taken from US11583545B2, “Parasiticidal compositions comprising eprinomectin and praziquantel, methods and uses thereof” (BOEHRINGER INGELHEIM ANIMAL HEALTH USA INC., priority 2018, dated 2023).
# How the values were obtained:
# [1] = in vivo
# [2] = Stability study of topical solution in the market container (HPLC, 30° C./65% RH); format: physicochemical; conditions: in formulation of Example 1, two runs
# [3] = in vivo; conditions: cat
# [4] = Pharmacokinetic assessment in cats after administration of the formulation of Example 1; conditions: blood of cats; after administration of formulation of Example 1
Molecule,time at which Cmax is reached [1] [h],average % label claim ([2]; time point 0 month) [% LC],average % label claim ([2]; time point 3 months) [% LC],average % label claim ([2]; time point 6 months) [% LC],average % label claim ([2]; time point 9 months) [% LC],average % label claim ([2]; time point 12 months) [% LC],average % label claim ([2]; time point 18 months) [% LC],half-life [3] [days],terminal half-life [4] [days]
"O=C(C1CCCCC1)N1CC(=O)N2CCc3ccccc3C2C1 (stereo not drawn) [Praziquantel, praziquantel]",6,99.52,97.38,97.74,98.44,98.36,97.04,3.08,
Eprinomectin,,99.33,97.92,97.61,98.40,98.50,96.48,,4.75
